Data set [1] addresses T1, recombinant human UGT1A6 (Homo sapiens, UniProt P19224).
T1 sequence (P19224 27-532): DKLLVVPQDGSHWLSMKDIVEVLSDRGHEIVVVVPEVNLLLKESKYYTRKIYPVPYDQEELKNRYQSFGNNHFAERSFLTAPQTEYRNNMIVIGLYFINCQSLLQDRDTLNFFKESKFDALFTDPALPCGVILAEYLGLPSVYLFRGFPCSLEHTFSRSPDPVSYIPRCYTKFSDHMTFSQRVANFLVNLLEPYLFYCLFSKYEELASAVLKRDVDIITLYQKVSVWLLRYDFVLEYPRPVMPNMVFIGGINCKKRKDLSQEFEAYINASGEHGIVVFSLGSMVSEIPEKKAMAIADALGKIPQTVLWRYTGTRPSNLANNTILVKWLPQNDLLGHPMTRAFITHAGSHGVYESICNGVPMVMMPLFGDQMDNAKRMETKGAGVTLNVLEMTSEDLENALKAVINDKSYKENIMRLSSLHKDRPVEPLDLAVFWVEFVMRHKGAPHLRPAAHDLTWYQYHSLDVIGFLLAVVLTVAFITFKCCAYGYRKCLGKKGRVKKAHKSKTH
The data set can be described thus: UGT reaction screening of NAF enantiomers, UGT1A6. To be noted: 10 μM substrate, 45 min.

The target in data set [2] is T2, UGT2B7 (Homo sapiens, UniProt P16662).
T2 sequence (P16662 24-529): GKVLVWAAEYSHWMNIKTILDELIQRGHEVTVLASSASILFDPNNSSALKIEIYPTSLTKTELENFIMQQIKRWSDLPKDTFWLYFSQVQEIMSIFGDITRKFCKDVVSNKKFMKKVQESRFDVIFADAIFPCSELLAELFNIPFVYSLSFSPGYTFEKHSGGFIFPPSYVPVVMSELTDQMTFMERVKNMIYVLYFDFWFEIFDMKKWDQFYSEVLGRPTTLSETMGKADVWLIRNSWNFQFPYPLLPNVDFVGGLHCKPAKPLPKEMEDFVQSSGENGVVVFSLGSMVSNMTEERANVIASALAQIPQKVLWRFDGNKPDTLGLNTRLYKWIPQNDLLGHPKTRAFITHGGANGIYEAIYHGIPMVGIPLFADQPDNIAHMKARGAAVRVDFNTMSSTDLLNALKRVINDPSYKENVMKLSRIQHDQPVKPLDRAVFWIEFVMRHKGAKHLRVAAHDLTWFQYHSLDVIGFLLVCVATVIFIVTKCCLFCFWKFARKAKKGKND
The data set can be described thus: Inhibition screening of recombinant UGTs by NAF enantiomers, UGT2B7 (4-MU). The class given is in vitro ADME. Further details: purchased BD Gentest. The note with it: recombinant UGT2B7, probe 4-MU, read-out: Inhibition of 4-MU-G formation; for inhibition at 10 μM: 10 μM NAF enantiomer; for inhibition at 100 μM: 100 μM NAF enantiomer. The protocol: (§1) The inhibition screening study was performed by investigating the 12 recombinant UGTs with 10 and 100 μM NAF enantiomer. […] 4-MU, as a non-specific substrate, was added to the other incubated samples. Instead of NAF enantiomers, the same volume of water was added to be the control sample. […] The formation of 4-MU-G and TFP-G produced from the 12 incubation system were analyzed by HPLC. The instrument parameters for the LC were as follows: system, Agilent 1260; Agilent Eclipse Plus C18 (2.1 mm × 50 mm, 1.8 μm, Santa Clara, CA, United States); mobile phase, methanol: 0.1% formic acid in water (0–3 min, 35:65; 3.1–4.5 min, 65:35; 4.6–5 min, 35:65); flow rate, 0.4 mL/min; column temperature, 25°C; and injection volume, 2 μL. The retention times of 4-MU, 4-MU-G, TFP, TFP-G, and MU (IS) were 1.5, 0.5, 2.2, 1.8, and 1.0 min, respectively.

The target of data set [3] is T3, UGT1A1 (Homo sapiens, UniProt P22309).
T3 construct: purchased BD Gentest
T3 sequence (P22309 26-533): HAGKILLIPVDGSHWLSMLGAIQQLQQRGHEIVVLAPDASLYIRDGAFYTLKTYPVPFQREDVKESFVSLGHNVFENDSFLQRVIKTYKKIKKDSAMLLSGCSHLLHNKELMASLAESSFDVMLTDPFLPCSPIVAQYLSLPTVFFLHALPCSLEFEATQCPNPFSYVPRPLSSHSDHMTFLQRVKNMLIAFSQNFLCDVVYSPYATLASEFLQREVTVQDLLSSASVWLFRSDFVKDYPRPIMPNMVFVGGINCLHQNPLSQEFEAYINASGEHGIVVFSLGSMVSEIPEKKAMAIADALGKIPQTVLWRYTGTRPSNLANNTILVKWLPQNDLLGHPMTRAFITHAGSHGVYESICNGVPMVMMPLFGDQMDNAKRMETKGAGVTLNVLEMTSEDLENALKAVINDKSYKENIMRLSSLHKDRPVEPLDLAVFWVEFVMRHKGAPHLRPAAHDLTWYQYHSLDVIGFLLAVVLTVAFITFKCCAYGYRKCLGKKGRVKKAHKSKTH
The data set can be described thus: Inhibition screening of recombinant UGTs by NAF enantiomers, UGT1A1 (4-MU). The data set is classed as in vitro ADME. The note with it: recombinant UGT1A1, probe 4-MU, 10 μM NAF enantiomer, read-out: Inhibition of 4-MU-G formation. The protocol:
as §1

For data set [4], the system named is human kidney microsomes (HKM). The data set can be described thus: Kinetics of NAF enantiomer glucuronidation by human kidney microsomes. The class given is in vitro ADME. On the procedure:
(§2) All glucuronidation assays were conducted in an incubation volume of 200 μL. Incubations were performed at 37°C in 50 mM Tris–HCl buffer (pH 7.5) with 10 mM magnesium chloride, 1 mg protein/mL of enzyme (microsomes and recombinant human UGTs), alamethicin (100 μg of alamethicin/mg microsomal protein), and NAF enantiomers (2.5–80 μM). The reaction was initiated by the addition of UDPGA (5 mM) and incubated at 37°C in a shaking water bath for 45 min. The reaction was terminated by the addition of 200 μL of ice-cold acetonitrile containing the IS (1 μM) and then centrifuged at 5000 ×g for 10 min at 4°C. The supernatant fraction was injected into the RRLC-MS/MS apparatus. Protein concentration (0.5–2 mg/mL) and incubation time (15–180 min) were optimized in preliminary studies to be within initial linear rate conditions.
(§3) Kinetic parameters were assessed in the HLM, RLM, HKM, RKM, and recombinant human UGTs (UGT2B4, 2B7, and 1A9).

Assay in data set [5]: as above
The class given is in vitro ADME. The note with it: human, human kidney microsomes, pH 7.5; NAF glucuronidation by HKM. On the procedure:
as §2, §3

As usually defined, the inhibition is the share of the control response that was lost under treatment. Broadly, the Km is the concentration of substrate that gives half-maximal velocity.

Turning to `COc1ccccc1N1CCN(C[C@H](O)COc2cccc3ccccc23)CC1` [S(-)-NAF], the “Glucuronide formation by UGT1A6” value in data set [1] was “no activity”. The inhibition at 10 μM in data set [2] and in data set [3] was more than 50% throughout. Moreover, the inhibition at 100 μM in data set [2] was more than 75%. The Kinetics type result in data set [4] is “substrate inhibition model”. Moreover, the Km at 45 min in data set [5] is 35 µM.

Take `COc1ccccc1N1CCN(C[C@@H](O)COc2cccc3ccccc23)CC1` [R(+)-NAF]: the “Glucuronide formation by UGT1A6” value in data set [1] is listed as “No R(+)-NAF-G was detected”. In addition, in data set [2], the inhibition at 10 μM was more than 50% and the inhibition at 100 μM was more than 75%. In addition, the inhibition at 10 μM in data set [3] was more than 50%. The Kinetics type result in data set [4] is “Michaelis–Menten model”. Further, the Michaelis-Menten constant (Km) at 45 min in data set [5] was determined as 40 µM.

The values above are taken from PMC5769128, “Human UDP-Glucuronosyltransferase 2B4 and 2B7 Are Responsible for Naftopidil Glucuronidation in Vitro” (Frontiers in Pharmacology, 2018).
